Source: article PMC9116245, “New 1,2,3-triazole linked ciprofloxacin-chalcones induce DNA damage by inhibiting human topoisomerase I& II and tubulin polymerization” (Journal of Enzyme Inhibition and Medicinal Chemistry, 2022)
Where two headings read alike, the source gives them in different places.

How the values were obtained:
Type in all cases: cell-based
HL-60(TB) = conditions: Homo sapiens
MOLT-4 = conditions: Homo sapiens
RPMI-8226 = tested on: RPMI-8226
HCC-2998 = conditions: Homo sapiens
HCT-15 = conditions: Homo sapiens
HT29 = conditions: Homo sapiens
SF-539 = conditions: Homo sapiens
SNB-75 = conditions: Homo sapiens
LOX IMVI = conditions: Homo sapiens
MALME-3M = conditions: Homo sapiens
SK-MEL-2 = conditions: Homo sapiens
SK-MEL-28 = conditions: Homo sapiens
OVCAR-3 = conditions: Homo sapiens
OVCAR-4 = conditions: Homo sapiens
OVCAR-5 = conditions: Homo sapiens
NCI/ADR-RES = conditions: Homo sapiens
A498 = conditions: Homo sapiens
ACHN = conditions: Homo sapiens
CAKI-1 = conditions: Homo sapiens
[1] = tested on: Melanoma (cell line name not given); conditions: Homo sapiens, under Melanoma
PC-3 = conditions: Homo sapiens
DU-145 = conditions: Homo sapiens
BT-549 = conditions: Homo sapiens
T-47D = conditions: Homo sapiens, T47D
[2] = tested on: 59 human cancer cell-lines
[3] = tested on: Human Embryonic Kidney (HEK) 293 cells; assay: Cytotoxicity assay with non-cancerous cells (MTS); conditions: HEK293 versus cancer cells
Description: To evaluate the selectivity and safety profile of the synthesised CP hybrids, a cytotoxicity experiment of compounds 4a, 4b, 4e, 4i, and 4j was performed using normal Human Embryonic Kidney (HEK) 293 cells.
To evaluate the selectivity and safety profile of the synthesised ciprofloxacin-chalcone hybrids, a cytotoxicity experiment was performed using a non-cancerous cell line. Briefly, Human Embryonic Kidney (HEK) 293 cells (ATCC, Manassas, VA, USA) were cultured in a Dulbecco’s Modified Eagle Medium (DEMEM) supplemented with 1 mM sodium pyruvate, 10 mM HEPES buffer solution, 2 mM GlutaMAX (Gibco, Grand Island, NY, USA), 50 µg/mL gentamycin sulphate (Dubuque, IA, USA), and 10% foetal bovine serum (ThermoFisher Scientific, USA). Cells were seeded in 96-well plates and incubated overnight in a humidified atmosphere with 5% CO2 at 37 °C. After 24 h, cells were treated with different concentrations (0.01–100 µM) of ciprofloxacin-chalcone hybrids. Also, DMSO and doxorubicin were used as negative and positive controls, respectively. After 72 h, old medium containing treatments were removed, and fresh medium and MTS reagents (CellTiter 96® AQueous One Solution Cell Proliferation Assay, Promega, Madison, WI, USA) were added. […] After 2 h, the absorbance was measured at 490 nm using a Spectra Max plus 384 Microplate reader (Molecular Devices, Sunnyvale, CA, USA) [74]. […]

[4] = read-out: LC50 (the source's name)
[5] = panel mean graph midpoint, Units Molar

In the case of `COc1cc(/C=C/C(=O)c2ccc(-n3cc(CN4CCN(c5cc6c(cc5F)c(=O)c(C(=O)O)cn6C5CC5)CC4)nn3)cc2)cc(OC)c1OC` [Compound 4j, (E)-1-cyclopropyl-6-fluoro-4-oxo-7–(4-((1–(4-(3-(3,4,5-trimethoxyphenyl)acryloyl)phenyl)-1H-1,2,3-triazol-4-yl)methyl)piperazin-1-yl)-1,4-dihydroquinoline-3-carboxylic acid], the GI50 (HL-60(TB)) is reported as 3.18 µM, the CC50 (HL-60(TB); [4]) is reported as greater than 100 µM and the GI50 (MOLT-4) is reported as 3.32 µM. For the same compound, the CC50 (MOLT-4; [4]) was greater than 100 µM, the GI50 (RPMI-8226; Homo sapiens, RPMI-8226, RPMI-8226) was 401 nM and the CC50 (RPMI-8226; Homo sapiens, RPMI-8226, read-out: LC50 (the source's name)) was greater than 100 µM. It also gave a GI50 (RPMI-8226; RPMI-8226) of 400 nM, a GI50 (HCC-2998) of 1730 nM and a GI50 (HCT-15) of 2250 nM. It also gave a CC50 (HCT-15; [4]) greater than 100 µM, a GI50 (HT29; HT-29) of 1240 nM and a CC50 (HT29; HT-29, read-out: LC50 (the source's name)) greater than 100 µM. The GI50 (SF-539) was 1910 nM, the CC50 (SF-539; [4]) was 10.3 µM and the GI50 (SNB-75) was 1490 nM. For the same compound, the CC50 (SNB-75; [4]) was greater than 100 µM, the GI50 (LOX IMVI) was 1570 nM and the CC50 (LOX IMVI; [4]) was greater than 100 µM. For the same compound, the GI50 (MALME-3M) was 2590 nM, the CC50 (MALME-3M; [4]) was greater than 100 µM and the GI50 (SK-MEL-2) was 21.1 µM. The CC50 (SK-MEL-2; [4]) was greater than 100 µM, the GI50 (SK-MEL-28) was 2770 nM and the LC50 (SK-MEL-28) was 78.9 µM. It also gave a GI50 (OVCAR-3) of 1840 nM, a CC50 (OVCAR-3; [4]) greater than 100 µM and a GI50 (OVCAR-4) of 3.94 µM. It also gave a CC50 (OVCAR-4; [4]) of 39.6 µM, a GI50 (OVCAR-5) of 3.7 µM and a CC50 (OVCAR-5; [4]) greater than 100 µM. It also gave a GI50 (NCI/ADR-RES) greater than 100 µM, a CC50 (NCI/ADR-RES; [4]) greater than 100 µM and a GI50 (A498) of 4.18 µM. For the same compound, the CC50 (A498; [4]) was 39.8 µM, the GI50 (ACHN) was 3.5 µM and the CC50 (ACHN; [4]) was greater than 100 µM. The GI50 (CAKI-1) was 5.1 µM, the CC50 (CAKI-1; [4]) was 51.7 µM and the GI50 [1] was 1730 nM. For the same compound, the GI50 (PC-3) was 2540 nM, the CC50 (PC-3; [4]) was greater than 100 µM and the GI50 (DU-145) was 3.67 µM. The LC50 (lethal concentration 50%) (DU-145) was greater than 100 µM, the GI50 (BT-549) was 1710 nM and the GI50 (T-47D) was 3.16 µM. For the same compound, the CC50 (T-47D; [4]) was greater than 100 µM, the GI50 ([2]; Homo sapiens, range over all cancer cell lines) was 0.21 to 21.1 µM and the “Log10GI50 _MID” value [2, 5] was -5.58. For the same compound, the “Log10LC50 _MID” value [2, 5] was -4.06, the “Log10TGI _MID” value [2, 5] was -4.58 and the “selectivity index compared with Doxorubicin” value [3] was “six-fold better”.
